Laboratory results from patent US20250144187A1, “COMBINATION OF HYDROLASES AND ANTI-MICROORGANISM DRUGS AND USES THEREOF” (CENTRE FOR EYE AND VISION RESEARCH LIMITED, priority 2023, published 2025).

What was measured:
MRSA [1] = test: Time-killing curves, cefdinir/lysozyme; format: cell-based, Staphylococcus aureus; conditions: 0.5 mg/ml lysozyme + 0.5 μg/ml cefdinir, after 16 hours; reduced from the level of 10^10
Protocol: 3) Time-killing curves. According to standard method [Thappeta K R V et al., ACS Infect Dis 6, 1228-1237 (2020)], over-night cultured MRSA was diluted and aliquoted into new sterile 50 ml tubes at 1:1000 ratio. Then, the bacterial suspension was cultured in LB medium containing 0.5 or 2.0 μg/ml cefdinir, 0.5 mg/ml lysozyme or their combination at 37° C. with shaking at 250 rpm. Bacterial suspension without any drugs served as control group. To measure their kinetic time-killing curves, twenty micro liters of each culture was extracted at time intervals of 0, 2, 4, 6, 9 and 16 h for measurement of the OD600 and colony-forming units. Ten micro liters of each dilution was spotted on the LB-agar plates and incubated at 37° C. for 24 hours prior to enumeration. All assays were performed in triplicate.

MRSA [2] = test: High-throughput screening of 4989 compounds with human lysozyme; format: cell-based, Staphylococcus aureus; conditions: for MRSA Inhibition ratio (%): compound 2.5 μM + 1 mg/ml lysozyme relative to compound only
Protocol: 1) High-throughput screening. […] Specifically, these compounds were added into bacterial suspensions (1×10^6 CFU/ml) in the […] microliter plate, in which each well contained 50 μl of lysogeny broth (LB) medium with or without 1 mg/ml lysozyme. LB medium in the absence of bacteria served as background group. Then, the real-time growth curves of MRSA were monitored per hour and for 24 hours. Experiments were performed with the biological replicates. Fly analyzing the absorbance 600 nm (OD600) of bacterial culture at the time point of 24-hour, the inhibition ratio (%) was calculated according to (ODcontrol−ODsample)/(ODcontrol−ODbackground)×100%. Here, the relative and apparent inhibition ratios were figured out by using the absorbance of bacterial suspension only containing compound and that without any drug treatment as ODcontrol, respectively. The relative and apparent inhibition ratios indicated the combination effect and potential toxicity of compound in combination effect. Synergy effect was defined as the relative inhibition ratio of ≥90%.

MRSA in ARPE-19 cells = test: Cell-based infection model, cefdinir/lysozyme; conditions: 0.25 μg/ml cefdinir combined with 0.5 mg/ml lysozyme
MRSA [3] = test: ATP, NAD+/NADH and pyruvate levels, tedizolid phosphate/lysozyme; format: cell-based, Staphylococcus aureus; conditions: combination therapy for 1 hour
Protocol: 13) ATP, NAD^+/NADH and pyruvate levels. According to the described method [Liu. Y et al., Adv. Sci. 7, 1902227(2020)], mid-log-phase MRSA with the OD600 of 0.4 to 0.6 was treated with lysozyme, tedizolid phosphate or their combination at different concentrations. Those without any treatment served as control group. After 1 hour incubation at 37° C. all bacteria we collected and then washed by cold PBS for 3 times. […] Then, 75 μl of each supernatant was incubated 25 μl of reaction I, followed by continuous incubation with 125 μl of reaction II. By recording the absorbance at 520 mu, the pyruvate level in each sample was figured out according to the standard formula. The intensity in control group was defined as 100% and others were normalized.
Then, 20 si of each supernatant was added white 96-well plate pre-reactivated by 100 μl of ATP test solution (Beyotime Biotechnology, China), followed by luminometer measurement [Liu, Y et al., Adv. Sci 7, 1902227 (2020)]. To analyze the intracellular NAD^+ and NADH levels [Xue, C et al., Front. Pharmacol. 12, 600296 (2021)], each lysis supernatant was divided into two tubes. One tube was heated at 60° C. for 30 minutes in PCR machine to decompose NAD^+ if had. Then, this tube was further centrifuged at 18,000 g at 4° C. for 20 minutes to collect the supernatant. After that, 20 μl of supernatant from heated or unheated group was added white 96-well plate pre-reactivated by 90 μl/well of alcohol dehydrogenase solution (Beyotime Biotechnology, China) for 10 minutes incubation at 37° C. in the prevention of light, Next, 10 μl of staining solution (Beyotime Biotechnology, China) was added to react with product in previous reaction. After 30 minutes at 37° C. in the prevention of light, orange formazan was observed and then the absorbance at 450 nm was recorded. Intensities of those […] heat treatment indicated the levels of NADH+NAD^+ and NADH itself, respectively. Finally, according to the standard formula, the intracellular levels of NAD^+, NADH and their ratio were figured out. All results were expressed as average±SD. […]

[4] = system: ocular bacterial communities in tears; test: Microbiome assay (16S rRNA) in ocular infection model; format: in vivo, C57BL/6 mice; conditions: combination therapy; infected untreated ~3%, healthy 0.052%
MRSE = test: Mutation frequency and prevention concentration analysis, tedizolid phosphate/lysozyme
MRSA [5] = test: TMT proteomics analysis, tedizolid phosphate/lysozyme; format: cell-based, Staphylococcus aureus
MRSA and MRSE = test: Resistance development studies (serial passages), tedizolid phosphate/lysozyme; format: cell-based; conditions: after 12-day serial passages
Protocol: 5) Resistance development studies. […] H et al., Nat Commun. 11, 5263 (2020)], MRSA at exponential phase was diluted (1:1000) into fresh LB medium containing different concentrations of tedizolid phosphate, lysozyme alone or their combination. After cultured at 37° C. for 24 hours, the MIC of culture was determined by standard two-fold serial dilutions in 96-well microtiter plates. […] . All assays were performed in triplicate.

[6] = combination therapy compared with lysozyme alone, 1 hour

For `C=CC1=C(C(=O)O)N2C(=O)[C@@H](NC(=O)/C(=N\O)c3csc(N)n3)[C@H]2SC1` [cefdinir, Cefdinir], the bacterial load (MRSA [1]) was 10^7 CFU/ml, the “MRSA Combination” value (MRSA [2]; OD600 at 24-hour, compound 2.5 μM + 1 mg/ml lysozyme) was 0.0564 and the “MRSA Drug only” value (MRSA [2]; OD600 at 24-hour, compound 2.5 μM without lysozyme) was 0.6975. The “MRSA Inhibition ratio (%)” value (MRSA [2]) was “above 90%”, the “MRSA Inhibition ratio (%)” value (MRSA [2]; listed as Ce ? dinir) was 99.16% and the “drop of bacterial load in infected ARPE-19 cells” value (MRSA in ARPE-19 cells) was 10^2 fold. For the same molecule, the “bacterial load in infected ARPE-19 cells” value (MRSA in ARPE-19 cells; MOI 50) was 10^3 CFU/ml.
`Cn1nnc(-c2ccc(-c3ccc(N4C[C@H](COP(=O)(O)O)OC4=O)cc3F)cn2)n1` [tedizolid phosphate, Tedizolid Phosphate] was tested, and the “decrease in the level of pyruvate” value (MRSA [3]) was greater than 40%, the “level of ATP” value (MRSA [3]) was “higher levels of ATP” and the “ratio of NAD+/NADH” value (MRSA [3]; increased from 8.84±1.89) was 18.43±4.42. For the same molecule, the “proportion of Staphylococcus in tear bacterial communities” value [4] was roughly 0.078%, the mutation frequencies (MRSE; combination with lysozyme) was 2×10^−9 and the “prevention concentrations of tedizolid phosphate” value (MRSE; combination with lysozyme) was no more than 1 µg/mL. The mutation frequencies (MRSE; without combination therapy) was ≥ 5×10^−7, the “prevention concentrations of tedizolid phosphate” value (MRSE; without lysozyme) was greater than 50 µg/mL and the “level of FtsA” value (MRSA [5]; combination therapy) was 0.003 fold. The “level of OatA (Q2FV54)” value (MRSA [5]; combination therapy) was “significant increase”, the “level of SepF” value (MRSA [5]; combination therapy) was 0.5 fold and the “expression of ornithine carbamoyltransferase (Q5HCR3)” value (MRSA [5]; [6]) was 0.5 fold. For the same molecule, the “level of arginine deiminase (Q5HKU2)” value (MRSA [5]; [6]) was 3.9 fold, the “level of urease subunit alpha (A5IV71)” value (MRSA [5]; [6]) was 1,5 fold and the “phosphoglycerate kinase (Q5HQV3) level” value (MRSA [5]; combination therapy, 1 hour) was 0.005 fold. The “probable malate:quinone oxidoreductase I (P65421) level” value (MRSA [5]; combination therapy, 1 hour) was 0.12 fold, the “changes in the MIC level of tedizolid phosphate” value (MRSA and MRSE; combination therapy with lysozyme) was “remained unchanged” and the “changes in the MIC level of tedizolid phosphate” value (MRSA and MRSE; tedizolid phosphate alone) was 30 fold.
